A short description of series [1]: In vitro metabolic stability in mouse liver microsomes. The series is classed as in vitro ADME. The following applies: 1 μM; 0.5 mg/mL microsomes; up to 60 min. A general note: Liver microsomes are vesicles of endoplasmic reticulum, rich in cytochrome P450 enzymes.
A short description of series [2]: In vitro metabolic stability in human liver microsomes. The series is classed as in vitro ADME. Particulars: 1 μM; 0.5 mg/mL microsomes; up to 60 min.
For a further series, the system named is L. mexicana. Description: In vivo efficacy, murine model of cutaneous leishmaniasis. On the set-up: species or system BALB/c mice. Particulars: oral gavage 40–60 mg/kg/d for 10 days.
The subject of another series is Plasmodium yoelli. Briefly: Plasmodium yoelli infection in mice. The series is classed as in vivo. The following applies: unpublished results.
In series [3] the test system is Salmonella typhimurium TA100 and TA98. Briefly: Ames mutagenicity assay. In kind it is cell-based. Particulars: up to 10 μM, with and without S9. (In general: The Ames test detects mutagens through reverse mutation in bacteria.)
The subject of the next series is L. mexicana amastigote. The series is classed as cell-based. The following applies: Leishmania mexicana, J774.A1, read-out: inhibition at 0.1 μM vs L. mexicana.

Structures are written as SMILES. Counter-ions that a name gives are not always drawn.

On to `CCc1ccc(C2=N/C(=C\NC3CCCCCC3)C(C)=C2C)[nH]1.Cl` [compound 110, (Z)-N-((5-Ethyl-3',4'-dimethyl-1H,5'H-[2,2'-bipyrrol]-5'-ylidene)methyl)cycloheptanamine Hydrochloride], for which, in series [1], the “metabolic stability (t1/2, min) vs MLM” value is > 60.0 min. In addition, the “metabolic stability (t1/2, min) vs HLM” value in series [2] is > 60.0 min. The “in vivo efficacy compared with the other TAs tested” value in the series with L. mexicana is “greater efficacy than both 95 and 101”. Also, the “efficacy in curing Plasmodium yoelli infections in mice” value (shortened to “efficacy … in mice”) in the series on Plasmodium yoelli is recorded as “strong efficacy”. In addition, in series [3], the Ames mutagenicity result is “negative”.

In the case of `C(/NC1CCCCC1)=C1/N=C(c2ccc[nH]2)C2=C1CCCC2.Cl` [compound 101, (Z)-N-((3-(1H-Pyrrol-2-yl)-4,5,6,7-tetrahydro-1H-isoindol-1-ylidene)methyl)cyclohexanamine Hydrochloride], the “metabolic stability (t1/2, min) vs MLM” value in series [1] is listed as 33.0 min. Moreover, the “metabolic stability (t1/2, min) vs HLM” value in series [2] is 26.7 min. Further, the “efficacy … in mice” value in the series on Plasmodium yoelli was “strong efficacy”.

Regarding `COC1=CC(c2ccc[nH]2)=N/C1=C\Nc1ccccc1OC(F)(F)F` [compound 59, (Z)-N-((4'-Methoxy-1H,5'H-[2,2'-bipyrrol]-5'-ylidene)methyl)-2-(trifluoromethoxy)aniline Hydrochloride], the inhibition of growth at 0.1 µM in the series on L. mexicana amastigote is ~30%.

On to `COC1=CC(c2ccc[nH]2)=N/C1=C\Nc1cccc(OC(F)(F)F)c1.Cl` [compound 58, (Z)-N-((4'-Methoxy-1H,5'H-[2,2'-bipyrrol]-5'-ylidene)methyl)-3-(trifluoromethoxy)aniline Hydrochloride], for which the “metabolic stability (t1/2, min) vs MLM” value in series [1] is reported as 15.8 min. Moreover, in series [2], the “metabolic stability (t1/2, min) vs HLM” value is > 60.0 min.

For the compound `CC1=C/C(=C\NC23CC4CC(CC(C4)C2)C3)N=C1c1ccc[nH]1.Cl` [compound 88], the “metabolic stability (t1/2, min) vs MLM” value in series [1] amounted to 17.6 min. In addition, the “metabolic stability (t1/2, min) vs HLM” value in series [2] is on record as > 60.0 min.

With `CCC1=C(CC)/C(=C/N[C@H]2CC[C@H](C)CC2)N=C1c1ccc[nH]1.Cl` [compound 95, (1r,4r)-N-((Z)-(3',4'-Diethyl-1H,5'H-[2,2'-bipyrrol]-5'-ylidene)methyl)-4-methylcyclohexan-1-amine Hydrochloride], the “metabolic stability (t1/2, min) vs MLM” value in series [1] turned out to be 37.5 min. Besides, the “metabolic stability (t1/2, min) vs HLM” value in series [2] was determined as 23.3 min. The “efficacy … in mice” value in the series on Plasmodium yoelli is recorded as “strong efficacy”.

Consider `COC1=CC(c2ccc[nH]2)=N/C1=C\Nc1ccc(Cl)c(OC)c1.Cl` [compound 61, (Z)-4-Chloro-3-methoxy-N-((4'-methoxy-1H,5'H-[2,2'-bipyrrol]-5'-ylidene)methyl)aniline Hydrochloride], for which the “metabolic stability (t1/2, min) vs MLM” value in series [1] is reported as > 60.0 min. Also, the “metabolic stability (t1/2, min) vs HLM” value in series [2] was > 60.0 min.

For the compound `COC1=CC(c2ccc(Cc3ccc(OC)cc3)[nH]2)=N/C1=C\NC1CCCCCC1.Cl` [compound 121, (Z)-N-((4'-Methoxy-5-(4-methoxybenzyl)-1H,5'H-[2,2'-bipyrrol]-5'-ylidene)methyl)cycloheptanamine Hydrochloride], in series [1], the “metabolic stability (t1/2, min) vs MLM” value is listed as 14.8 min. Moreover, the “metabolic stability (t1/2, min) vs HLM” value in series [2] is given as 25.6 min.

As for `COC1=CC(c2ccc(Cc3ccc(OC)cc3)[nH]2)=N/C1=C\NC1CCCC1.Cl` [compound 119, (Z)-N-((4'-Methoxy-5-(4-methoxybenzyl)-1H,5'H-[2,2'-bipyrrol]-5'-ylidene)methyl)cyclopentanamine Hydrochloride], the “metabolic stability (t1/2, min) vs MLM” value in series [1] is 10.4 min. For the same compound, the “metabolic stability (t1/2, min) vs HLM” value in series [2] worked out at 11.7 min.

In the case of `COC1=CC(c2ccc[nH]2)=N/C1=C\Nc1ccc2c(c1)OCCO2.Cl` [compound 63, (Z)-N-((4'-Methoxy-1H,5'H-[2,2'-bipyrrol]-5'-ylidene)methyl)-2,3-dihydrobenzo[b][1,4]dioxin-6-amine Hydrochloride], in series [1], the “metabolic stability (t1/2, min) vs MLM” value turned out to be 15.8 min. Further, the “metabolic stability (t1/2, min) vs HLM” value in series [2] was > 60.0 min.

Values taken from publication PMC11163866 (Journal of medicinal chemistry, 2024).
